The values below come from patent US10519152B2, “Compounds and their use in treating cancer” (AstraZeneca AB, priority 2017, dated 2019).

This test addresses T1, Estrogen Receptor (ERα) in MCF-7 human ductal carcinoma breast cell line (Homo sapiens, UniProt P03372).
T1 construct: endogenous in cells; host or cells: MCF-7
T1 sequence (P03372 1-595): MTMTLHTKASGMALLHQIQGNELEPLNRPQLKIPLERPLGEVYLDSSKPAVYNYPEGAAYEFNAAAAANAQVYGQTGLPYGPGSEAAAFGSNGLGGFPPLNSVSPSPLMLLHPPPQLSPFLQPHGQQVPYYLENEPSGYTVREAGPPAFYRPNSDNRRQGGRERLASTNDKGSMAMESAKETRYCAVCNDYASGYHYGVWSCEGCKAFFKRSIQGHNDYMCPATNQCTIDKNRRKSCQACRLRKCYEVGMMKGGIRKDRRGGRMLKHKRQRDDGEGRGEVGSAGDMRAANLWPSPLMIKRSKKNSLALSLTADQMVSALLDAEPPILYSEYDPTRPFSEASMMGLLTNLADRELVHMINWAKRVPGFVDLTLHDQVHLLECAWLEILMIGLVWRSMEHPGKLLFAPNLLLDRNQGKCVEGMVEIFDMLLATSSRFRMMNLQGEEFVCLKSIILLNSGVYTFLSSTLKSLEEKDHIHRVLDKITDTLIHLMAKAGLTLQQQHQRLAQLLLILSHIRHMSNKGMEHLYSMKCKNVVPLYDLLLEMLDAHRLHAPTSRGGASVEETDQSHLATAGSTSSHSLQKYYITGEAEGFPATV
Put plainly: MCF-7 ER degradation assay (cell based immuno-fluorescence). The following applies: MCF-7 cells; for ER degradation ≥ 90% at 0.3 μM: ER degradation by fulvestrant at 0.3 μM is defined as 100%; for DC50: 18-22 hours incubation, 50% reduction of ERα expression, single experiment or average of two or more, read-out: MCF-7 ER degradation IC50. The essentials:
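MCF-7 human ductal carcinoma breast cells were seeded at 3.75×10^4 cells per mL (40 μL per well) in 384 well plates with phenol red free DMEM containing 2 mM L-Glutamine and 5% (v/v) Charcoal/Dextran treated foetal calf serum. After overnight culture, compounds were acoustically dispensed, incubated 18-22 hours, then cells were formaldehyde-fixed and immunostained for ERα.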

In the case of `Cc1ncsc1-c1ccc(CNC(=O)[C@@H]2C[C@@H](O)CN2C(=O)[C@@H](NC(=O)Cc2ccc(OCCOCCNC(=O)/C=C/c3cc(F)c([C@@H]4c5[nH]c6ccccc6c5C[C@@H](C)N4CC(C)(C)F)c(F)c3)cc2)C(C)(C)C)cc1` [Example 66, (2S,4R)-1-((S)-2-(2-(4-(2-(2-((E)-3-(3,5-difluoro-4-((1R,3R)-2-(2-fluoro-2-methylpropyl)-3-methyl-2,3,4,9-tetrahydro-1H-pyrido[3,4-b]indol-1-yl)phenyl)acrylamido)ethoxy)ethoxy)phenyl)acetamido)-3,3-dimethylbutanoyl)-4-hydroxy-N-(4-(4-methylthiazol-5-yl)benzyl)pyrrolidine-2-carboxamide, Trifluoroacetic Acid], the “ER degradation ≥ 90% at 0.3 μM” value is “•” and the DC50 turned out to be 2.2 nM.

In the case of `Cc1ncsc1-c1ccc(CNC(=O)[C@@H]2C[C@@H](O)CN2C(=O)[C@@H](NC(=O)c2ccc(N3CCN(CCNC(=O)/C=C/c4cc(F)c([C@@H]5c6[nH]c7ccccc7c6C[C@@H](C)N5CC(C)(C)F)c(F)c4)CC3)cc2)C(C)(C)C)cc1` [Example 67, (2S,4R)-1-((S)-2-(4-(4-(2-((E)-3-(3,5-difluoro-4-((1R,3R)-2-(2-fluoro-2-methylpropyl)-3-methyl-2,3,4,9-tetrahydro-1H-pyrido[3,4-b]indol-1-yl)phenyl)acrylamido)ethyl)piperazin-1-yl)benzamido)-3,3-dimethylbutanoyl)-4-hydroxy-N-(4-(4-methylthiazol-5-yl)benzyl)pyrrolidine-2-carboxamide, Trifluoroacetic Acid], the “ER degradation ≥ 90% at 0.3 μM” value is “•” and the DC50 was 4.5 nM.

As to `Cc1ncsc1-c1ccc(CNC(=O)[C@@H]2C[C@@H](O)CN2C(=O)[C@@H](NC(=O)COCCOCCOCCOCC(=O)Nc2cc(F)c([C@@H]3c4[nH]c5ccccc5c4C[C@@H](C)N3CC(C)(C)F)c(F)c2)C(C)(C)C)cc1` [Example 68, N1-(3,5-difluoro-4-((1R,3R)-2-(2-fluoro-2-methylpropyl)-3-methyl-2,3,4,9-tetrahydro-1H-pyrido[3,4-b]indol-1-yl)phenyl)-N14-((S)-1-((2S,4R)-4-hydroxy-2-((4-(4-methylthiazol-5-yl)benzyl)carbamoyl)pyrrolidin-1-yl)-3,3-dimethyl-1-oxobutan-2-yl)-3,6,9,12-tetraoxatetradecanediamide], the “ER degradation ≥ 90% at 0.3 μM” value is recorded as “••” and the DC50 came out at 6.2 nM.

On to `Cc1ncsc1-c1ccc(CNC(=O)[C@@H]2C[C@@H](O)CN2C(=O)[C@@H](NC(=O)COCCOCCOCCOc2cc(F)c([C@@H]3c4[nH]c5ccccc5c4C[C@@H](C)N3CC(F)(F)CO)c(F)c2)C(C)(C)C)cc1` [Example 71, (2S,4R)-1-((S)-2-(tert-Butyl)-14-(4-((1R,3R)-2-(2,2-difluoro-3-hydroxypropyl)-3-methyl-2,3,4,9-tetrahydro-1H-pyrido[3,4-b]indol-1-yl)-3,5-difluorophenoxy)-4-oxo-6,9,12-trioxa-3-azatetradecanoyl)-4-hydroxy-N-(4-(4-methylthiazol-5-yl)benzyl)pyrrolidine-2-carboxamide], for which the “ER degradation ≥ 90% at 0.3 μM” value was “•” and the DC50 amounted to 0.5 nM.

For the molecule `Cc1ncsc1-c1ccc(CNC(=O)[C@@H]2C[C@@H](O)CN2C(=O)[C@@H](NC(=O)COCc2cccc(CCCOc3cc(F)c([C@@H]4c5[nH]c6ccccc6c5C[C@@H](C)N4CC(C)(C)F)c(F)c3)c2)C(C)(C)C)cc1` [Example 74, (2S,4R)-1-((S)-2-(2-((3-(3-(3,5-Difluoro-4-((1R,3R)-2-(2-fluoro-2-methylpropyl)-3-methyl-2,3,4,9-tetrahydro-1H-pyrido[3,4-b]indol-1-yl)phenoxy)propyl)benzyl)oxy)acetamido)-3,3-dimethylbutanoyl)-4-hydroxy-N-(4-(4-methylthiazol-5-yl)benzyl)pyrrolidine-2-carboxamide], the “ER degradation ≥ 90% at 0.3 μM” value is listed as “••” and the DC50 was 14.3 nM.

For the molecule `Cc1ncsc1-c1ccc(CNC(=O)[C@@H]2C[C@@H](O)CN2C(=O)[C@@H](NC(=O)COCCOCCOCCOc2cc(F)c([C@@H]3c4[nH]c5ccccc5c4C[C@@H](C)N3CC3(F)CC3)c(F)c2)C(C)(C)C)cc1` [Example 77, (2S,4R)-1-((S)-2-(tert-Butyl)-14-(3,5-difluoro-4-((1R,3R)-2-((1-fluorocyclopropyl)methyl)-3-methyl-2,3,4,9-tetrahydro-1H-pyrido[3,4-b]indol-1-yl)phenoxy)-4-oxo-6,9,12-trioxa-3-azatetradecanoyl)-4-hydroxy-N-(4-(4-methylthiazol-5-yl)benzyl)pyrrolidine-2-carboxamide], the “ER degradation ≥ 90% at 0.3 μM” value is on record as “••” and the DC50 was found to be 1 nM.

With `Cc1ncsc1-c1ccc(CNC(=O)[C@@H]2C[C@@H](O)CN2C(=O)[C@@H](NC(=O)COCCCCCCCOc2cc(F)c([C@@H]3c4[nH]c5ccccc5c4C[C@@H](C)N3CC(F)(F)CO)c(F)c2)C(C)(C)C)cc1` [Example 78, (2S,4R)-1-((S)-2-(2-((7-(4-((1R,3R)-2-(2,2-Difluoro-3-hydroxypropyl)-3-methyl-2,3,4,9-tetrahydro-1H-pyrido[3,4-b]indol-1-yl)-3,5-difluorophenoxy)heptyl)oxy)acetamido)-3,3-dimethylbutanoyl)-4-hydroxy-N-(4-(4-methylthiazol-5-yl)benzyl)pyrrolidine-2-carboxamide], the “ER degradation ≥ 90% at 0.3 μM” value is given as “••” and the DC50 was 0.6 nM.

`Cc1ncsc1-c1ccc(CNC(=O)[C@@H]2C[C@@H](O)CN2C(=O)[C@@H](NC(=O)COCCCCCOc2cc(F)c([C@@H]3c4[nH]c5ccccc5c4C[C@@H](C)N3CC3(F)CC3)c(F)c2)C(C)(C)C)cc1` [Example 79, (2S,4R)-1-((S)-2-(2-((5-(3,5-difluoro-4-((1R,3R)-2-((1-fluorocyclopropyl)methyl)-3-methyl-2,3,4,9-tetrahydro-1H-pyrido[3,4-b]indol-1-yl)phenoxy)pentyl)oxy)acetamido)-3,3-dimethylbutanoyl)-4-hydroxy-N-(4-(4-methylthiazol-5-yl)benzyl)pyrrolidine-2-carboxamide]: the “ER degradation ≥ 90% at 0.3 μM” value was “•” and the DC50 is 2 nM.

Regarding `Cc1ncsc1-c1ccc(CNC(=O)[C@@H]2C[C@@H](O)CN2C(=O)[C@@H](NC(=O)COCCO[C@H](C)[C@@H](C)OCCOc2cc(F)c([C@@H]3c4[nH]c5ccccc5c4C[C@@H](C)N3CC(C)(C)F)c(F)c2)C(C)(C)C)cc1` [Example 80, (2S,4R)-1-((2S,10R,11R)-2-(tert-butyl)-14-(3,5-difluoro-4-((1R,3R)-2-(2-fluoro-2-methylpropyl)-3-methyl-2,3,4,9-tetrahydro-1H-pyrido[3,4-b]indol-1-yl)phenoxy)-10,11-dimethyl-4-oxo-6,9,12-trioxa-3-azatetradecanoyl)-4-hydroxy-N-(4-(4-methylthiazol-5-yl)benzyl)pyrrolidine-2-carboxamide], the “ER degradation ≥ 90% at 0.3 μM” value is “••” and the DC50 turned out to be 0.7 nM.

Consider `Cc1ncsc1-c1ccc(CNC(=O)[C@@H]2C[C@@H](O)CN2C(=O)[C@@H](NC(=O)COCCO[C@@H](C)[C@H](C)OCCOc2cc(F)c([C@@H]3c4[nH]c5ccccc5c4C[C@@H](C)N3CC(C)(C)F)c(F)c2)C(C)(C)C)cc1` [Example 82, (2S,4R)-1-((2S,10S,11S)-2-(tert-butyl)-14-(3,5-difluoro-4-((1R,3R)-2-(2-fluoro-2-methylpropyl)-3-methyl-2,3,4,9-tetrahydro-1H-pyrido[3,4-b]indol-1-yl)phenoxy)-10,11-dimethyl-4-oxo-6,9,12-trioxa-3-azatetradecanoyl)-4-hydroxy-N-(4-(4-methylthiazol-5-yl)benzyl)pyrrolidine-2-carboxamide], for which the “ER degradation ≥ 90% at 0.3 μM” value is on record as “••” and the DC50 is 0.2 nM.

For the molecule `Cc1ncsc1-c1ccc(CNC(=O)[C@@H]2C[C@@H](O)CN2C(=O)[C@@H](NC(=O)COCCOCCOCCCCNC(=O)c2cc(F)c([C@@H]3c4[nH]c5ccccc5c4C[C@@H](C)N3CC(C)(C)F)c(F)c2)C(C)(C)C)cc1` [Example 83, (2S,4R)-1-((S)-17-(tert-Butyl)-1-(3,5-difluoro-4-((1R,3R)-2-(2-fluoro-2-methylpropyl)-3-methyl-2,3,4,9-tetrahydro-1H-pyrido[3,4-b]indol-1-yl)phenyl)-1,15-dioxo-7,10,13-trioxa-2,16-diazaoctadecan-18-oyl)-4-hydroxy-N-(4-(4-methylthiazol-5-yl)benzyl)pyrrolidine-2-carboxamide], the “ER degradation ≥ 90% at 0.3 μM” value is “••” and the DC50 stood at 0.6 nM.
